Measurements reported in paper PMC11510666, “Thiazolidinedione-Conjugated Lupeol Derivatives as Potent Anticancer Agents Through a Mitochondria-Mediated Apoptotic Pathway” (Molecules, 2024).

Columns and labels:
[1] = system: human lung cancer A549; assay: MTT antiproliferative assay, A549; type: cell-based; details: 48 h, mean ± SD, three independent experiments
Procedure: (§1) These cell lines were cultured in Dulbecco's Modified Eagle Medium containing 10% (v/v) fetal bovine serum (FBS, Wisent) and 1% (v/v) Penicillin-Streptomycin Solution mixture (Beyotime, Shanghai, China) at 37 °C under 5% CO2. An MTT assay evaluated the cytotoxicity of lupeol derivatives toward the A549, MCF-7, HepG2, and LO2 cell lines. The cells were inoculated into 96-well plates (3 × 10^3 cells/well) and cultured for 24 h at 37 °C in 5% CO2. After that, a gradient concentration of the test drug was added to continue the incubation for 48 h. Subsequently, the MTT solution continued to incubate with the cells for 4 h. Afterward, the upper waste layer was discarded, and DMSO was added ([…], Tianjin, China). After the formazan completely dissolved, the absorbance of each well at 490 nm was measured with a microplate reader. The mean values were derived from three independent experiments.

[2] = system: human breast cancer MCF-7; assay: MTT antiproliferative assay, MCF-7; type: cell-based; details: mean ± SD, three independent experiments
Procedure: as §1

[3] = system: human hepatocarcinoma HepG2; assay: MTT antiproliferative assay, HepG2; type: cell-based; details: for IC50: MTT, 48 h, mean ± SD, three independent experiments; for SI (selectivity index): IC50 values on L02 cells/HepG2 cells
Procedure: as §1

[4] = system: human hepatic LO2 cells; details: read-out: IC50 LO2; MTT, 48 h, mean ± SD, three independent experiments
Procedure: as §1

| IC50 [1] | IC50 ([2]; 48 h) | IC50 [3] | IC50 ([2]; Homo sapiens, MCF7, 48 h) | IC50 ([3]; Homo sapiens, HepG2) | Compound | SI (selectivity index) [3] | IC50 [4] |
| --- | --- | --- | --- | --- | --- | --- | --- |
| 17.3 ± 1.58 µM | 24 ± 1.87 µM | 22.7 ± 1.59 µM | – | – | C=C(C)C1CCC2(C)CCC3(C)C(CCC4C5(C)CCC(OC(=O)CN6C(=O)SC(=Cc7ccc(F)cc7)C6=O)C(C)(C)C5CCC43C)C12 (centres unmarked) [Compound 6a, Lupeol-3-[(1-Ethyl)-2]-5-(4-Fluorobenzylidene)-2,4-Thiazolidinedione] | 4.07 | 92.6 ± 1.03 µM |
| 14.2 ± 1.72 µM | 13.8 ± 0.75 µM | 16.6 ± 1.38 µM | – | – | C=C(C)C1CCC2(C)CCC3(C)C(CCC4C5(C)CCC(OC(=O)CN6C(=O)SC(=Cc7ccc(Cl)cc7)C6=O)C(C)(C)C5CCC43C)C12 (centres unmarked) [Compound 6b, Lupeol-3-[(1-Ethyl)-2]-5-(4-Chlorobenzylidene)-2,4-Thiazolidinedione] | 4.25 | 70.5 ± 1.51 µM |
| 10.4 ± 0.82 µM | 22.1 ± 1.42 µM | 18.2 ± 1.27 µM | – | – | C=C(C)C1CCC2(C)CCC3(C)C(CCC4C5(C)CCC(OC(=O)CN6C(=O)SC(=Cc7ccc(C)cc7)C6=O)C(C)(C)C5CCC43C)C12 (centres unmarked) [Compound 6c, Lupeol-3-[(1-Ethyl)-2]-5-(4-Methylbenzylidene)-2,4-Thiazolidinedione] | 4.2 | 76.4 ± 1.22 µM |
| 14.2 ± 1.43 µM | 15.4 ± 1.22 µM | 10.9 ± 0.78 µM | – | – | C=C(C)C1CCC2(C)CCC3(C)C(CCC4C5(C)CCC(OC(=O)CN6C(=O)SC(=Cc7ccc(C(C)(C)C)cc7)C6=O)C(C)(C)C5CCC43C)C12 (centres unmarked) [Compound 6d, Lupeol-3-[(1-Ethyl)-2]-5-(4-Tert-Butylphenyl)-2,4-Thiazolidinedione] | 3.61 | 39.2 ± 1.07 µM |
| 9.43 ± 0.74 µM | 12.5 ± 0.74 µM | 15.5 ± 0.86 µM | – | – | C=C(C)C1CCC2(C)CCC3(C)C(CCC4C5(C)CCC(OC(=O)CN6C(=O)SC(=Cc7ccccc7OC)C6=O)C(C)(C)C5CCC43C)C12 (centres unmarked) [Compound 6e, Lupeol-3-[(1-Ethyl)-2]-5-(2-Methoxybenzylidene)-2,4-Thiazolidinedione] | 4.57 | 70.8 ± 0.93 µM |
| 10.3 ± 0.86 µM | 16.1 ± 0.89 µM | 19.2 ± 1.57 µM | – | – | C=C(C)C1CCC2(C)CCC3(C)C(CCC4C5(C)CCC(OC(=O)CN6C(=O)SC(=Cc7ccc(OC)c(OC)c7OC)C6=O)C(C)(C)C5CCC43C)C12 (centres unmarked) [Compound 6f, Lupeol-3-[(1-Ethyl)-2]-5-(2,3,4-Trimethoxybenzylidene)-2,4-Thiazolidinedione] | 4.44 | 85.3 ± 1.12 µM |
| 14.9 ± 1.21 µM | 12.8 ± 0.22 µM | 15.3 ± 1.32 µM | – | – | C=C(C)C1CCC2(C)CCC3(C)C(CCC4C5(C)CCC(OC(=O)CN6C(=O)SC(=Cc7ccco7)C6=O)C(C)(C)C5CCC43C)C12 (centres unmarked) [Compound 6g, Lupeol-3-[(1-Ethyl)-2]-5-(2-Furanylmethylene)-2,4-Thiazolidinedione] | 3.95 | 60.6 ± 1.84 µM |
| 14 ± 1.39 µM | 11.3 ± 0.85 µM | 12.8 ± 0.97 µM | – | – | C=C(C)C1CCC2(C)CCC3(C)C(CCC4C5(C)CCC(OC(=O)CN6C(=O)SC(=Cc7cccs7)C6=O)C(C)(C)C5CCC43C)C12 (centres unmarked) [Compound 6h, Lupeol-3-[(1-Ethyl)-2]-5-(2-Thienylmethylene)-2,4-Thiazolidinedione] | 4.55 | 58.4 ± 0.78 µM |
| 11.3 ± 0.91 µM | 8.7 ± 0.12 µM | 9.48 ± 0.71 µM | – | – | C=C(C)C1CCC2(C)CCC3(C)C(CCC4C5(C)CCC(OC(=O)CN6C(=O)SC(=CC(C)C)C6=O)C(C)(C)C5CCC43C)C12 (centres unmarked) [Compound 6i, Lupeol-3-[(1-Ethyl)-2]-5-(2-Methylpropylidene)-2,4-Thiazolidinedione] | 4.80 | 45.5 ± 1.33 µM |
| 18.7 ± 1.25 µM | 19.1 ± 1.78 µM | 20.5 ± 1.62 µM | – | – | C=C(C)C1CCC2(C)CCC3(C)C(CCC4C5(C)CCC(OC(=O)N6CCN(C(=O)CN7C(=O)SC(=Cc8ccc(F)cc8)C7=O)CC6)C(C)(C)C5CCC43C)C12 (centres unmarked) [Compound 9a, Lupeol-3-[(1-Piperazinyl)-4]-5-(4-Fluorobenzylidene)-2,4-Thiazolidinedione] | 3.87 | 79.1 ± 1.25 µM |
| 15.5 ± 0.64 µM | 14 ± 0.87 µM | 18.1 ± 1.73 µM | – | – | C=C(C)C1CCC2(C)CCC3(C)C(CCC4C5(C)CCC(OC(=O)N6CCN(C(=O)CN7C(=O)SC(=Cc8ccc(Cl)cc8)C7=O)CC6)C(C)(C)C5CCC43C)C12 (centres unmarked) [Compound 9b, Lupeol-3-[(1-Piperazinyl)-4]-5-(4-Chlorobenzylidene)-2,4-Thiazolidinedione] | 4.44 | 80.5 ± 1.79 µM |
| 12.7 ± 0.68 µM | 16.3 ± 0.76 µM | 15.7 ± 1.52 µM | – | – | C=C(C)C1CCC2(C)CCC3(C)C(CCC4C5(C)CCC(OC(=O)N6CCN(C(=O)CN7C(=O)SC(=Cc8ccc(C)cc8)C7=O)CC6)C(C)(C)C5CCC43C)C12 (centres unmarked) [Compound 9c, Lupeol-3-[(1-Piperazinyl)-2]-5-(4-Methylbenzylidene)-2,4-Thiazolidinedione] | 4.14 | 65.1 ± 0.93 µM |
| 11.7 ± 0.75 µM | 18.1 ± 1.93 µM | 9.52 ± 0.61 µM | – | – | C=C(C)C1CCC2(C)CCC3(C)C(CCC4C5(C)CCC(OC(=O)N6CCN(C(=O)CN7C(=O)SC(=Cc8ccc(C(C)(C)C)cc8)C7=O)CC6)C(C)(C)C5CCC43C)C12 (centres unmarked) [Compound 9d, Lupeol-3-[(1-Piperazinyl)-4]-5-(4-Tert-Butylphenyl)-2,4-Thiazolidinedione] | 4.43 | 42.2 ± 1.28 µM |
| 10.4 ± 0.38 µM | 18.6 ± 1.27 µM | 16.5 ± 1.26 µM | – | – | C=C(C)C1CCC2(C)CCC3(C)C(CCC4C5(C)CCC(OC(=O)N6CCN(C(=O)CN7C(=O)SC(=Cc8ccccc8OC)C7=O)CC6)C(C)(C)C5CCC43C)C12 (centres unmarked) [Compound 9e, Lupeol-3-[(1-Piperazinyl)-4]-5-(2-Methoxybenzylidene)-2,4-Thiazolidinedione] | 3.83 | 63.3 ± 1.14 µM |
| 9.24 ± 0.48 µM | 9.19 ± 0.46 µM | 10.8 ± 0.45 µM | – | – | C=C(C)C1CCC2(C)CCC3(C)C(CCC4C5(C)CCC(OC(=O)N6CCN(C(=O)CN7C(=O)SC(=Cc8ccc(OC)c(OC)c8OC)C7=O)CC6)C(C)(C)C5CCC43C)C12 (centres unmarked) [Compound 9f, Lupeol-3-[(1-Piperazinyl)-4]-5-(2,3,4-Trimethoxybenzylidene)-2,4-Thiazolidinedione] | 5.19 | 56.1 ± 0.77 µM |
| 9.91 ± 0.42 µM | 12 ± 0.75 µM | 15 ± 0.74 µM | – | – | C=C(C)C1CCC2(C)CCC3(C)C(CCC4C5(C)CCC(OC(=O)N6CCN(C(=O)CN7C(=O)SC(=Cc8ccco8)C7=O)CC6)C(C)(C)C5CCC43C)C12 (centres unmarked) [Compound 9g, Lupeol-3-[(1-Piperazinyl)-4]-5-(2-Furanylmethylene)-2,4-Thiazolidinedione] | 4.19 | 62.77 ± 0.62 µM |
| 16.4 ± 1.69 µM | 13.8 ± 0.58 µM | 15.3 ± 0.98 µM | – | – | C=C(C)C1CCC2(C)CCC3(C)C(CCC4C5(C)CCC(OC(=O)N6CCN(C(=O)CN7C(=O)SC(=Cc8cccs8)C7=O)CC6)C(C)(C)C5CCC43C)C12 (centres unmarked) [Compound 9h, Lupeol-3-[(1-Piperazinyl)-4]-5-(2-Thienylmethylene)-2,4-Thiazolidinedione] | 4.50 | 68.9 ± 1.19 µM |
| 13.8 ± 0.84 µM | 20.1 ± 1.59 µM | 6.91 ± 0.31 µM | – | – | C=C(C)C1CCC2(C)CCC3(C)C(CCC4C5(C)CCC(OC(=O)N6CCN(C(=O)CN7C(=O)SC(=CC(C)C)C7=O)CC6)C(C)(C)C5CCC43C)C12 (centres unmarked) [Compound 9i, Lupeol-3-[(1-Piperazinyl)-4]-5-(2-Methylpropylidene)-2,4-Thiazolidinedione] | 5.12 | 35.4 ± 0.72 µM |
| 10.5 ± 0.56 µM | 16.8 ± 1.29 µM | 16.5 ± 0.54 µM | – | – | C=C(C)C1CCC2(C)CCC3(C)C(CCC4C5(C)CCC(OC(=O)NCCNC(=O)CN6C(=O)SC(=Cc7ccc(F)cc7)C6=O)C(C)(C)C5CCC43C)C12 (centres unmarked) [Compound 12a, Lupeol-3-[(1-Ethylenediaminyl)-4]-5-(4-Fluorobenzylidene)-2,4-Thiazolidinedione] | 4.30 | 71.03 ± 0.57 µM |
| 17.1 ± 1.28 µM | 19.1 ± 1.63 µM | 17.7 ± 0.79 µM | – | – | C=C(C)C1CCC2(C)CCC3(C)C(CCC4C5(C)CCC(OC(=O)NCCNC(=O)CN6C(=O)SC(=Cc7ccc(Cl)cc7)C6=O)C(C)(C)C5CCC43C)C12 (centres unmarked) [Compound 12b, Lupeol-3-[(1-Ethylenediaminyl)-4]-5-(4-Chlorobenzylidene)-2,4-Thiazolidinedione] | 4.35 | 76.87 ± 0.69 µM |
| 13.4 ± 0.79 µM | 14.3 ± 0.78 µM | 10.7 ± 0.12 µM | – | – | C=C(C)C1CCC2(C)CCC3(C)C(CCC4C5(C)CCC(OC(=O)NCCNC(=O)CN6C(=O)SC(=Cc7ccc(C)cc7)C6=O)C(C)(C)C5CCC43C)C12 (centres unmarked) [Compound 12c, Lupeol-3-[(1-Ethylenediaminyl)-2]-5-(4-Methylbenzylidene)-2,4-Thiazolidinedione] | 3.79 | 40.68 ± 0.31 µM |
| – | – | – | 62 ± 1.79 µM | 43.6 ± 1.37 µM | C=C(C)[C@@H]1CC[C@]2(C)CC[C@]3(C)[C@H](CC[C@@H]4[C@@]5(C)CC[C@H](O)C(C)(C)[C@@H]5CC[C@]43C)[C@@H]12 [Lupeol] | – | – |

| Compound | IC50 [1] | IC50 ([2]; 48 h) | IC50 [3] | IC50 ([2]; Homo sapiens, MCF7, 48 h) | IC50 ([3]; Homo sapiens, HepG2) | SI (selectivity index) [3] | IC50 [4] |
| --- | --- | --- | --- | --- | --- | --- | --- |
| N.N.[Cl][Pt][Cl] [Cisplatin, cisplatin, reference compound] | 4.96 ± 0.48 µM | 5.79 ± 0.49 µM | 4.65 ± 0.54 µM | – | – | – | – |
